Test results taken from ChEMBL document CHEMBL1145398, “Bidirectional, iterative approach to the structural delineation of the functional "chemoprint" in GPR40 for agonist recognition” (J Med Chem, 2007).

Key:
[1] = target: Free fatty acid receptor 1 (Homo sapiens, UniProt O14842, H137F); experiment: Agonist activity at human GPR40 H137F mutant expressed in HEK-EM 293 cells assessed as increase in intracellular calcium; format: functional, cell-based, HEK293
[2] = test system: Free fatty acid receptor 1 (Homo sapiens), O14842 [R258A]; experiment: Agonist activity at human GPR40 R258A mutant expressed in HEK-EM 293 cells assessed as effect on intracellular calcium relative to wild type; format: functional, cell-based; details: HEK293
Free fatty acid receptor 1 (Homo sapiens), O14842 [R258A], sequence (O14842 whole entry R258A): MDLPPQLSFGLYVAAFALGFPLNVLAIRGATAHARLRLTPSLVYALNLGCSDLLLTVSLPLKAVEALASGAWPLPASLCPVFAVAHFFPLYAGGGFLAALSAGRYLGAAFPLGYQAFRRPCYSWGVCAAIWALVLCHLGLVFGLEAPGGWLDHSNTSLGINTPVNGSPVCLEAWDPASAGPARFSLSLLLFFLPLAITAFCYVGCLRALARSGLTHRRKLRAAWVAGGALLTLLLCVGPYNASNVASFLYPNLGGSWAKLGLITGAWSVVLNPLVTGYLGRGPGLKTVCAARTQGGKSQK

[3] = test system: Free fatty acid receptor 1 (Homo sapiens), O14842 [R183A]; experiment: Agonist activity at human GPR40 R183A mutant expressed in HEK-EM 293 cells assessed as effect on intracellular calcium relative to wild type; format: functional, cell-based; details: HEK293
Free fatty acid receptor 1 (Homo sapiens), O14842 [R183A], sequence (O14842 whole entry R183A): as the sequence (O14842 whole entry R258A) above, with R183A, A258R counted along it

[4] = target: Free fatty acid receptor 1 (Homo sapiens, UniProt O14842, H137A); experiment: Agonist activity at human GPR40 H137A mutant expressed in HEK-EM 293 cells assessed as increase in intracellular calcium; format: functional, cell-based, HEK293
Free fatty acid receptor 1 (Homo sapiens, UniProt O14842, H137A), sequence (O14842 whole entry H137A): as the sequence (O14842 whole entry R258A) above, with H137A, A258R counted along it

[5] = test system: Free fatty acid receptor 1 (Homo sapiens), O14842 [V237F]; experiment: Agonist activity at human GPR40 V237F mutant expressed in HEK-EM 293 cells assessed as increase in intracellular calcium; format: functional, cell-based; details: HEK293
Free fatty acid receptor 1 (Homo sapiens), O14842 [V237F], sequence (O14842 whole entry V237F): as the sequence (O14842 whole entry R258A) above, with V237F, A258R counted along it

[6] = test system: Free fatty acid receptor 1 (Homo sapiens), O14842 [R258K]; experiment: Agonist activity at human GPR40 R258K mutant expressed in HEK-EM 293 cells assessed as effect on intracellular calcium relative to wild type; format: functional, cell-based; details: HEK293
Free fatty acid receptor 1 (Homo sapiens), O14842 [R258K], sequence (O14842 whole entry R258K): as the sequence (O14842 whole entry R258A) above, with A258K counted along it

[7] = target: Free fatty acid receptor 1 (Homo sapiens, UniProt O14842); experiment: Agonist activity at human GPR40 expressed in HEK-EM 293 cells assessed as increase in intracellular calcium; format: functional, cell-based, HEK293
Free fatty acid receptor 1 (Homo sapiens, UniProt O14842), sequence (O14842 whole entry): as the sequence (O14842 whole entry R258A) above, with A258R counted along it

[8] = target: Free fatty acid receptor 1 (Homo sapiens, UniProt O14842, H86F); experiment: Agonist activity at human GPR40 H86F mutant expressed in HEK-EM 293 cells assessed as increase in intracellular calcium; format: functional, cell-based, HEK293
Free fatty acid receptor 1 (Homo sapiens, UniProt O14842, H86F), sequence (O14842 whole entry H86F): as the sequence (O14842 whole entry R258A) above, with H86F, A258R counted along it

[9] = target: Free fatty acid receptor 1 (Homo sapiens, UniProt O14842, N244A); experiment: Agonist activity at human GPR40 N244A mutant expressed in HEK-EM 293 cells assessed as increase in intracellular calcium; format: functional, cell-based, HEK293
Free fatty acid receptor 1 (Homo sapiens, UniProt O14842, N244A), sequence (O14842 whole entry N244A): as the sequence (O14842 whole entry R258A) above, with N244A, A258R counted along it

[10] = target: Free fatty acid receptor 1 (Homo sapiens, UniProt O14842, H86A); experiment: Agonist activity at human GPR40 H86A mutant expressed in HEK-EM 293 cells assessed as increase in intracellular calcium; format: functional, cell-based, HEK293
Free fatty acid receptor 1 (Homo sapiens, UniProt O14842, H86A), sequence (O14842 whole entry H86A): as the sequence (O14842 whole entry R258A) above, with H86A, A258R counted along it

Free fatty acid receptor 1 (Homo sapiens, UniProt O14842, H137F), sequence (O14842 whole entry H137F): as the sequence (O14842 whole entry R258A) above, with H137F, A258R counted along it

O=C(O)CCc1ccc(NCc2cccc(Oc3ccccc3)c2)cc1 [GW9508]
EC50 [1]: 6800 nM
Fold change [2]: > 100
Fold change [3]: > 100
EC50 [4]: > 30000 nM
Fold change [5]: 1.1
Fold change [6]: > 100
EC50 [7]: 224 nM
Activity ([7]; HEK293): 223 nM
EC50 [8]: 1200 nM
EC50 [9]: 17800 nM
EC50 [10]: 2200 nM
